The source of these data is US10450316B2, “Certain protein kinase inhibitor” (Chongqing Fochon Pharmaceutical Co., Ltd., priority 2015, dated 2019).

One test relates to COLO205 xenograft tumors. Nature of the test: Tumor growth inhibition in COLO205 xenograft tumors. It counts as in vivo. To be noted: 30 mg/kg; for Average Tumor Volume D0: D0, in mm³; for Average Tumor Volume D21: D21, in mm³. As for the experimental part:
COLO205 cells were cultured with RPMI-1640 medium containing 10% fetal bovine serum (FBS) at 37° C. in 5% CO2 incubator. Logarithmic growth phase cells were collected. COLO205 cells (5×10^6 in 200 μL PBS) were implanted subcutaneously into the left flank region, and tumor growth was monitored. Tumor volume (V) was estimated from the length (l) and width (w) of the tumor using the following formula: V=1/2×l×w^2. Treatment started when average tumor size was 100-150 mm^3. Measuring subcutaneous tumor volume 2 to 3 times every week. Drug efficacy was assessed as Tumor Growth Inhibition (TGI) and Tumor increment rate T/C (%). TGI was defined as (1−T/C)×100%, wherein T/C (%) presented the ratio of the change in mean tumor volume of the treated group and of the control group.

In the next test the test system is BE(2)-C cell. Nature of the test: Cell proliferation assay (MTS) in BE(2)-C cells. Particulars: Homo sapiens, inhibition of BE(2)-C cell proliferation, 48 h. The test is classed as cell-based. Put shortly:
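Proliferation read-out was MTS absorbance at 490 nm, with 650 nm as reference, after a 2 h MTS incubation, giving IC50 values. Before reading, BE(2)-C cells plated at 3000 per well were exposed to nine compound concentrations from 10000 down to 1.5 nM for 48 h at 37 °C, 5% CO2.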

Another test deals with T1, CDK4/cyclin D1 (Homo sapiens, UniProt P11802).
T1 construct: purchased Invitrogen PV4436
Nature of the test: CDK kinase inhibition assay (33P-ATP HotSpot filter binding). To be noted: substrate RB Protein, 10 μM ATP. It counts as biochemical. As for the experimental part: (§1) Testing compounds were dissolved in 100% DMSO to specific concentration. Compounds were tested in 10-dose mode with 3-fold serial dilution starting at 100 μM. The serial dilution was conducted by epMotion 5070 in DMSO.
(§2) Each substrate was prepared in freshly prepared Reaction Buffer (20 mM Hepes (pH 7.5), 10 mM MgCl2, 1 mM EGTA, 0.02% Brij35, 0.02 mg/ml BSA, 0.1 mM Na3VO4, 2 mM DTT, 1% DMSO). Each kinase was delivered into the substrate solution and the solution was gently mixed. 0.05 μL Compounds were delivered into 5 μL kinase reaction mixture in a 384 well plate by Acoustic technology (Echo550; nanoliter range), and the mixture was incubated for 20 min at room temperature. 0.01 μL of 5 mM ATP with ^33P-ATP (PerkinElmer, Cat# NEG602H001MC, Specific activity […]) was delivered into the reaction mixture to initiate the reaction, and the final concentration of ATP in the mixture was 10 μM. The resulted solutions were incubated for 2 hours at room temperature, the radioactivity incorporated is determined by the proprietary “HotSpot” platform, which is a miniaturized filter-binding method (using this paper as reference: Anastassiadis et al, 2011 Nature Biotech) IC50 value of each compound was generated using GraphPad Prism software.
(§3) Select compounds prepared as described above were assayed according to the biological procedures described herein.

The next test addresses T2, CDK2/cyclin A (Homo sapiens, UniProt P24941).
T2 construct: purchased Invitrogen PR4448B
Described as above. The test is classed as biochemical. To be noted: substrate Histone H1, 10 μM ATP. As to the method: as §1, §2, §3

The target in the next test is T3, CDK6/cyclin D1 (Homo sapiens, UniProt Q00534).
T3 construct: purchased Invitrogen PR8422B
The description is as above. The test is classed as biochemical. To be noted: substrate RB Protein, 10 μM ATP. As to the method:
as §1, §2, §3

In the next test the target is T4, CDK1/cyclin B (Homo sapiens, UniProt P06493).
T4 construct: purchased Invitrogen PR4768C
The test is described as above. The test is classed as biochemical. To be noted: substrate Histone H1, 10 μM ATP. As to the method: as §1, §2, §3

T4 sequence (P06493 whole entry): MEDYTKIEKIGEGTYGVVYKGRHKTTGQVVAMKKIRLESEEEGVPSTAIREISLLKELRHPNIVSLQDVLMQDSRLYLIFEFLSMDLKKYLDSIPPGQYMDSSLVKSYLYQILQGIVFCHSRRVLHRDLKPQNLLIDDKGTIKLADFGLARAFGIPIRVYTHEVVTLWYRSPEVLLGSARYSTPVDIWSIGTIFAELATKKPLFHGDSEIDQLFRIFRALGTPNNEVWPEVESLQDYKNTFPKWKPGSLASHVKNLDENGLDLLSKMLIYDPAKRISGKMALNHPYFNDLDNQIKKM
T4 sequence (P14635 whole entry partner): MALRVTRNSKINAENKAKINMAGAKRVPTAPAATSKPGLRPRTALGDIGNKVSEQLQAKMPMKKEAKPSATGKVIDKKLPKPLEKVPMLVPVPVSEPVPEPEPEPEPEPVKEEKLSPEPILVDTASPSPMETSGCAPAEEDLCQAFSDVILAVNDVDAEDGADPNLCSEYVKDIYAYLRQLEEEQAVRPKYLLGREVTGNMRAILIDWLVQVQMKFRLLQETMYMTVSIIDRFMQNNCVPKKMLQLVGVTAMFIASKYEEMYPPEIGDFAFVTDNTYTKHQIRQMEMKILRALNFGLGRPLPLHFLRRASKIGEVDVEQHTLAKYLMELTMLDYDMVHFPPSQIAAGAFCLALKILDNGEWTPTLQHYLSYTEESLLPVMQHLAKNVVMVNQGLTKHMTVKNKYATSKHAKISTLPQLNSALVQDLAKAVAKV
T1 sequence (P11802 whole entry): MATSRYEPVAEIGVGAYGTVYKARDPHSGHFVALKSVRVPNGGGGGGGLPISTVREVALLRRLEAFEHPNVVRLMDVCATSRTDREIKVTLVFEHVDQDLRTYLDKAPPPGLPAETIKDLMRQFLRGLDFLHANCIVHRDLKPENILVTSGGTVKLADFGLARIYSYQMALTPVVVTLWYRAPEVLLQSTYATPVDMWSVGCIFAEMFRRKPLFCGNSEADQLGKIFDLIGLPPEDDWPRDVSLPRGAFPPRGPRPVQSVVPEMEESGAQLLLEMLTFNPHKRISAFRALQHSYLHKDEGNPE
T1 sequence (P24385 whole entry partner): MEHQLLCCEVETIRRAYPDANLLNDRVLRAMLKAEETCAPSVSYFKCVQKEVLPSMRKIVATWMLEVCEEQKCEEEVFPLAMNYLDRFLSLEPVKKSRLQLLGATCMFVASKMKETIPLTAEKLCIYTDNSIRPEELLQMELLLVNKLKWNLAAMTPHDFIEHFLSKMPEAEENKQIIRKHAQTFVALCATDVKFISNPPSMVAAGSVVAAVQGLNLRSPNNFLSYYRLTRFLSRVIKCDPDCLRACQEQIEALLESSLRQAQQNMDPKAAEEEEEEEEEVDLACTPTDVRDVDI
T3 sequence (Q00534 whole entry): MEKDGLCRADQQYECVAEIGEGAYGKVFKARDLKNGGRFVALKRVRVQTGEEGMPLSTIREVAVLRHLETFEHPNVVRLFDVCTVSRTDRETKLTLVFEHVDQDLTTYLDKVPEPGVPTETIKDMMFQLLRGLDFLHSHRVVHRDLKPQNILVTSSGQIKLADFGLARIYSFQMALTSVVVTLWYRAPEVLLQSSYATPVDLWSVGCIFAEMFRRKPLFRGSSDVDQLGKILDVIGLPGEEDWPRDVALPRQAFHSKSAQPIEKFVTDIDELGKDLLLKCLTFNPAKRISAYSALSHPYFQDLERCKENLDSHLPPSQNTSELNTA
T3 sequence (P24385 whole entry partner): as the sequence (P24385 whole entry partner) above

In the case of `CN1CCN(Cc2ccc(Nc3ncc(F)c(-c4cc(F)c5nc6n(c5c4)[C@H](C(F)F)CC6)n3)nc2)CC1` [Example 11, (S)-4-(1-(difluoromethyl)-5-fluoro-2,3-dihydro-1H-benzo[d]pyrrolo[1,2-a]imidazol-7-yl)-5-fluoro-N-(5-((4-methylpiperazin-1-yl)methyl)pyridin-2-yl)pyrimidin-2-amine], in the test on COLO205 xenograft tumors, the “Average Tumor Volume D0” value turned out to be 110 ± 3.2, the “T/C % D21” value is 28%, the “TGI % D21” value turned out to be 72% and the “Average Tumor Volume D21” value is on record as 570 ± 57. In addition, the IC50 with BE(2)-C cell is 10 to 100 nM.
Turning to `CCN1CCN(Cc2ccc(Nc3ncc(F)c(-c4cc(F)c5nc6n(c5c4)[C@H](C(F)F)CC6)n3)nc2)CC1` [Example 12, (S)-4-(1-(difluoromethyl)-5-fluoro-2,3-dihydro-1H-benzo[d]pyrrolo[1,2-a]imidazol-7-yl)-N-(5-((4-ethylpiperazin-1-yl)methyl)pyridin-2-yl)-5-fluoropyrimidin-2-amine], in the test with COLO205 xenograft tumors, the “Average Tumor Volume D0” value came to 113 ± 3.4. Besides, in the test with COLO205 xenograft tumors, the “T/C % D21” value stood at 29%. Besides, the “TGI % D21” value in the test on COLO205 xenograft tumors worked out at 71%. The “Average Tumor Volume D21” value in the test on COLO205 xenograft tumors was determined as 584 ± 86. The IC50 is 10 to 100 nM with BE(2)-C cell; under 5 nM on CDK4/cyclin D1; 50.5 nM at CDK2/cyclin A; under 5 nM at CDK6/cyclin D1; 403 nM on CDK1/cyclin B.
Consider `CN1CCN(c2ccc(Nc3ncc(F)c(-c4cc(F)c5nc6n(c5c4)[C@H](C(F)F)CC6)n3)nc2)CC1` [Example 39, (S)-4-(1-(difluoromethyl)-5-fluoro-2,3-dihydro-1H-benzo[d]pyrrolo[1,2-a]imidazol-7-yl)-5-fluoro-N-(5-(4-methylpiperazin-1-yl)pyridin-2-yl)pyrimidin-2-amine], for which the half-maximal inhibitory concentration (IC50) was over 100 nM in the test on BE(2)-C cell; under 5 nM on CDK4/cyclin D1; 19.2 nM on CDK2/cyclin A; under 5 nM on CDK6/cyclin D1; 50.5 nM on CDK1/cyclin B.
`CN1CCC2(CC1)CCN(Cc1ccc(Nc3ncc(F)c(-c4cc(F)c5nc6n(c5c4)[C@H](C(F)F)CC6)n3)nc1)CC2` [Example 52, (S)-4-(1-(difluoromethyl)-5-fluoro-2,3-dihydro-1H-benzo[d]pyrrolo[1,2-a]imidazol-7-yl)-5-fluoro-N-(5-((9-methyl-3,9-diazaspiro[5.5]undecan-3-yl)methyl)pyridin-2-yl)pyrimidin-2-amine] showed an IC50 in the test with BE(2)-C cell of over 100 nM.
`CN1C2CCC1CN(Cc1ccc(Nc3ncc(F)c(-c4cc(F)c5nc6n(c5c4)C(C)(C)CC6)n3)nc1)C2` [Example 130, 5-fluoro-4-(5-fluoro-1,1-dimethyl-2,3-dihydro-1H-benzo[d]pyrrolo[1,2-a]imidazol-7-yl)-N-(5-((8-methyl-3,8-diazabicyclo[3.2.1]octan-3-yl)methyl)pyridin-2-yl)pyrimidin-2-amine] yielded an IC50 in the test on BE(2)-C cell of 10 to 100 nM.
Molecule `FC[C@@H]1CCc2nc3c(F)cc(-c4nc(Nc5ccc(CN6C7CCC6CNC7)cn5)ncc4F)cc3n21` [Example 32, N-(5-((3,8-diazabicyclo[3.2.1]octan-8-yl)methyl)pyridin-2-yl)-5-fluoro-4-((S)-5-fluoro-1-(fluoro-methyl)-2,3-dihydro-1H-benzo[d]pyrrolo[1,2-a]imidazol-7-yl)pyrimidin-2-amine] displayed an IC50 in the test on BE(2)-C cell of over 100 nM.
For the molecule `Fc1cnc(Nc2ccc(CN3CCC4(CCNCC4)CC3)cn2)nc1-c1cc(F)c2nc3n(c2c1)[C@H](C(F)(F)F)CC3` [Example 70, (S)-N-(5-((3,9-diazaspiro[5.5]undecan-3-yl)methyl)pyridin-2-yl)-5-fluoro-4-(5-fluoro-1-(trifluoromethyl)-2,3-dihydro-1H-benzo[d]pyrrolo[1,2-a]imidazol-7-yl)pyrimidin-2-amine], in the test on BE(2)-C cell, the IC50 is over 1000 nM.
In the case of `CCN1CC2(C1)CN(Cc1ccc(Nc3ncc(F)c(-c4cc(F)c5nc6n(c5c4)[C@H](C(F)F)CC6)n3)nc1)C2` [Example 47, (S)-4-(1-(difluoromethyl)-5-fluoro-2,3-dihydro-1H-benzo[d]pyrrolo[1,2-a]imidazol-7-yl)-N-(5-((6-ethyl-2,6-diazaspiro[3.3]heptan-2-yl)methyl)pyridin-2-yl)-5-fluoropyrimidin-2-amine], the IC50 in the test on BE(2)-C cell is 10 to 100 nM.
Still for that read-out and setting: in the case of `C[C@@H]1CCc2nc3c(F)cc(-c4nc(Nc5ccc(CN6CCN7CCC[C@@H]7C6)cn5)ncc4F)cc3n21` [Example 85, 5-fluoro-4-((R)-5-fluoro-1-methyl-2,3-dihydro-1H-benzo[d]pyrrolo[1,2-a]imidazol-7-yl)-N-(5-(((R)-hexahydropyrrolo[1,2-a]pyrazin-2(1H)-yl)methyl)pyridin-2-yl)pyrimidin-2-amine] it was 10 to 100 nM; in that of `CC1(C)CCc2nc3c(F)cc(-c4nc(Nc5ccc(CN6CCC7(CCNCC7)CC6)cn5)ncc4F)cc3n21` [Example 120, N-(5-((3,9-diazaspiro[5.5]undecan-3-yl)methyl)pyridin-2-yl)-5-fluoro-4-(5-fluoro-1,1-dimethyl-2,3-dihydro-1H-benzo[d]pyrrolo[1,2-a]imidazol-7-yl)pyrimidin-2-amine], over 100 nM; in that of `COC[C@H]1CCc2nc3c(F)cc(-c4nc(Nc5ccc(CN6CCNCC6)cn5)ncc4F)cc3n21` [Example 158, (R)-5-fluoro-4-(5-fluoro-1-(methoxymethyl)-2,3-dihydro-1H-benzo[d]pyrrolo[1,2-a]imidazol-7-yl)-N-(5-(piperazin-1-ylmethyl)pyridin-2-yl)pyrimidin-2-amine], over 1000 nM.
Turning to `CN1CCC2(CC1)CCN(Cc1ccc(Nc3ncc(F)c(-c4cc(F)c5nc6n(c5c4)[C@H](CF)CC6)n3)nc1)CC2` [Example 30, (S)-5-fluoro-4-(5-fluoro-1-(fluoromethyl)-2,3-dihydro-1H-benzo[d]pyrrolo[1,2-a]imidazol-7-yl)-N-(5-((9-methyl-3,9-diazaspiro[5.5]undecan-3-yl)methyl)pyridin-2-yl)pyrimidin-2-amine], in the test with BE(2)-C cell, the IC50 is over 100 nM.
On the same count and under the same terms, under `CN1CCN(Cc2ccc(Nc3ncc(F)c(-c4cc(F)c5nc6n(c5c4)[C@H](CF)CC6)n3)nc2)CC1` [Example 5, (S)-5-fluoro-4-(5-fluoro-1-(fluoromethyl)-2,3-dihydro-1H-benzo[d]pyrrolo[1,2-a]imidazol-7-yl)-N-(5-((4-methylpiperazin-1-yl)methyl)pyridin-2-yl)pyrimidin-2-amine] stands over 100 nM.

As a reminder, the IC50 is the concentration needed to halve the response being measured. A higher IC50 goes with a need for much substance.
